Assay results from patent publication US4401660A, “Ester derivatives of 5-O-mycaminosyl tylonolide and method of using same” (Eli Lilly and Company, priority 1981, dated 1983).
Read-outs that look alike come from different tables or passages of the source.

Experiments:
[1] = tested on: Haemophilus influenzae Holt; test: MIC, standard agar-dilution assay (Table II); format: cell-based; parameters: unit not given here; settings: ampicillin-sensitive strain
Description: (§1) The MIC's in Table II were determined by standard agar-dilution assays. The MIC's in Table III were obtained using a conventional broth-dilution microtiter test.

[2] = tested on: Streptococcus pyogenes C203; test: MIC, standard agar-dilution assay (Table II); format: cell-based; parameters: unit not given here
Description: as §1

[3] = tested on: Staphylococcus aureus S13E; test: MIC, standard agar-dilution assay (Table II); format: cell-based; parameters: unit not given here
Description: as §1

[4] = tested on: Staphylococcus aureus X400; test: MIC, standard agar-dilution assay (Table II); format: cell-based; parameters: unit not given here; settings: Staphylococcus aureus X400, methicillin-resistant strain
Description: as §1

[5] = tested on: Staphylococcus epidermidis EPI2; test: MIC, standard agar-dilution assay (Table II); format: cell-based; parameters: unit not given here
Description: as §1

[6] = tested on: Streptococcus pneumoniae Park I; test: MIC, standard agar-dilution assay (Table II); format: cell-based; parameters: unit not given here
Description: as §1

[7] = tested on: Staphylococcus aureus V41; test: MIC, standard agar-dilution assay (Table II); format: cell-based; parameters: unit not given here; settings: Staphylococcus aureus V41, penicillin-resistant strain
Description: as §1

[8] = tested on: Streptococcus Group D X66; test: MIC, standard agar-dilution assay (Table II); format: cell-based; parameters: unit not given here
Description: as §1

[9] = tested on: Staphylococcus epidermidis EPI1; test: MIC, standard agar-dilution assay (Table II); format: cell-based; parameters: unit not given here
Description: as §1

[10] = tested on: Streptococcus Group D 9960; test: MIC, standard agar-dilution assay (Table II); format: cell-based; parameters: unit not given here
Description: as §1

[11] = tested on: Staphylococcus aureus X1.1; test: MIC, standard agar-dilution assay (Table II); format: cell-based; parameters: unit not given here
Description: as §1

[12] = tested on: Haemophilus influenzae R252; test: MIC, standard agar-dilution assay (Table II); format: cell-based; parameters: unit not given here; settings: Haemophilus influenzae R252, ampicillin-resistant strain
Description: as §1

[13] = tested on: Streptococcus pyogenes C203; test: ED50 in mice with experimental infections (Table IV); format: in vivo; settings: Streptococcus pyogenes, doses given 1 and 4 hours postinfection
In short: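 Read-out is ED50, the mg/kg dose protecting half of infected mice; values refer to each of two doses, given 1 and 4 hours after infection.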

[14] = tested on: Pasteurella multocida 22A; test: MIC, broth-dilution microtiter test (Table III); format: cell-based; parameters: unit not given here
Description: as §1

[15] = tested on: Mycoplasma synoviae; test: MIC, broth-dilution microtiter test (Table III); format: cell-based; parameters: unit not given here
Description: as §1

[16] = tested on: Mycoplasma hyorhinis; test: MIC, broth-dilution microtiter test (Table III); format: cell-based; parameters: unit not given here
Description: as §1

[17] = tested on: Pasteurella haemolytica 23C; test: MIC, broth-dilution microtiter test (Table III); format: cell-based; parameters: unit not given here
Description: as §1

[18] = tested on: Pasteurella multocida 17E; test: MIC, broth-dilution microtiter test (Table III); format: cell-based; parameters: unit not given here; settings: bovine isolate
Description: as §1

[19] = tested on: Streptococcus sp. 80; test: MIC, broth-dilution microtiter test (Table III); format: cell-based; parameters: unit not given here
Description: as §1

[20] = tested on: Staphylococcus aureus; test: MIC, broth-dilution microtiter test (Table III); format: cell-based; parameters: unit not given here
Description: as §1

[21] = tested on: Mycoplasma gallisepticum; test: MIC, broth-dilution microtiter test (Table III); format: cell-based; parameters: unit not given here
Description: as §1

[22] = tested on: Pasteurella multocida 60A; test: MIC, broth-dilution microtiter test (Table III); format: cell-based; parameters: unit not given here; settings: avian isolate
Description: as §1

[23] = tested on: Pasteurella haemolytica 41D; test: MIC, broth-dilution microtiter test (Table III); format: cell-based; parameters: unit not given here
Description: as §1

[24] = tested on: Pasteurella multocida 68C; test: MIC, broth-dilution microtiter test (Table III); format: cell-based; parameters: unit not given here
Description: as §1

[25] = tested on: Pasteurella multocida 40G; test: MIC, broth-dilution microtiter test (Table III); format: cell-based; parameters: unit not given here
Description: as §1

[26] = tested on: Pasteurella haemolytica 22C; test: MIC, broth-dilution microtiter test (Table III); format: cell-based; parameters: unit not given here
Description: as §1

[27] = tested on: Pasteurella multocida; test: Treatment of Pasteurella infections in chicks (Table V); format: in vivo, one-day-old chicks; settings: Pasteurella multocida, sc, 4 h; 30 mg/kg by subcutaneous injection one and four hours post challenge; read-out: Deaths in Treated Chicks/Number Treated (converted)
In short: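 Dosing was 30 mg/kg by subcutaneous injection, one and four hours after challenge. Day-old chicks received 0.1 ml of a 10^-3 dilution of a 20-hour tryptose broth culture of avian P. multocida subcutaneously. Nonmedicated infected chicks served as controls, ten per group.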

[28] = C203, oral, read-out: ED50, Oral
[29] = C203, sc, subcutaneous, read-out: ED50, Subcutaneous

## CCC1OC(=O)CC(O)C(C)C(OC2OC(C)C(O)C(N(C)C)C2O)C(CC=O)CC(C)C(=O)C=CC(C)=CC1COC(C)=O (centres unmarked) [Compound 13, 23-O-Acetyl-OMT]
[1]
  minimal inhibitory concentration (MIC): 1
[2]
  minimal inhibitory concentration (MIC): 0.125
[3]
  minimal inhibitory concentration (MIC): 0.25
[4]
  minimal inhibitory concentration (MIC): 0.5
[5]
  minimal inhibitory concentration (MIC): 0.25
[6]
  minimal inhibitory concentration (MIC): 0.125
[7]
  minimal inhibitory concentration (MIC): 0.25
[8]
  minimal inhibitory concentration (MIC): 0.25
[9]
  minimal inhibitory concentration (MIC): 0.25
[10]
  minimal inhibitory concentration (MIC): 0.5
[11]
  minimal inhibitory concentration (MIC): 0.25
[12]
  minimal inhibitory concentration (MIC): 4
[13]; [28]
  ED50: 109 mg/kg
[13]; [29]
  ED50: 3.3 mg/kg
[14]
  minimal inhibitory concentration (MIC): 1.56
[15]
  minimal inhibitory concentration (MIC): 0.097
[16]
  minimal inhibitory concentration (MIC): 0.78
[17]
  minimal inhibitory concentration (MIC): 3.12
[18]
  minimal inhibitory concentration (MIC): 1.56
[19]
  minimal inhibitory concentration (MIC): 0.195
[20]
  minimal inhibitory concentration (MIC): 0.39
[21]
  minimal inhibitory concentration (MIC): 0.05
[22]
  minimal inhibitory concentration (MIC): 1.56
[23]
  minimal inhibitory concentration (MIC): 6.25
[24]
  minimal inhibitory concentration (MIC): 1.56
[25]
  minimal inhibitory concentration (MIC): 3.12
[26]
  minimal inhibitory concentration (MIC): 3.12
[27]
  mortality at 30 mg/kg: 0%

## CCC(=O)OCC1C=C(C)C=CC(=O)C(C)CC(CC=O)C(OC2OC(C)C(O)C(N(C)C)C2O)C(C)C(O)CC(=O)OC1CC (centres unmarked) [Compound 14, 23-O-Propionyl-OMT]
[1]
  minimal inhibitory concentration (MIC): 1
[2]
  minimal inhibitory concentration (MIC): 0.125
[3]
  minimal inhibitory concentration (MIC): 0.25
[4]
  minimal inhibitory concentration (MIC): 0.25
[5]
  minimal inhibitory concentration (MIC): 0.125
[6]
  minimal inhibitory concentration (MIC): 0.125
[7]
  minimal inhibitory concentration (MIC): 0.25
[8]
  minimal inhibitory concentration (MIC): 0.25
[9]
  minimal inhibitory concentration (MIC): 0.125
[10]
  minimal inhibitory concentration (MIC): 0.25
[11]
  minimal inhibitory concentration (MIC): 0.25
[12]
  minimal inhibitory concentration (MIC): 4
[13]; [28]
  ED50: 106 mg/kg
[13]; [29]
  ED50: 6 mg/kg
[14]
  minimal inhibitory concentration (MIC): 3.12
[15]
  minimal inhibitory concentration (MIC): 0.05
[16]
  minimal inhibitory concentration (MIC): 6.25
[17]
  minimal inhibitory concentration (MIC): 3.12
[18]
  minimal inhibitory concentration (MIC): 1.56
[19]
  minimal inhibitory concentration (MIC): 0.195
[20]
  minimal inhibitory concentration (MIC): 0.39
[21]
  minimal inhibitory concentration (MIC): 0.05
[22]
  minimal inhibitory concentration (MIC): 0.78
[23]
  minimal inhibitory concentration (MIC): 6.25
[24]
  minimal inhibitory concentration (MIC): 1.56
[25]
  minimal inhibitory concentration (MIC): 1.56
[26]
  minimal inhibitory concentration (MIC): 6.25
[27]
  mortality at 30 mg/kg: 0%

## CCC1OC(=O)CC(O)C(C)C(OC2OC(C)C(O)C(N(C)C)C2OC(C)=O)C(CC=O)CC(C)C(=O)C=CC(C)=CC1CO (centres unmarked) [Compound 1, 2'-O-Acetyl-OMT]
[1]
  minimal inhibitory concentration (MIC): 4
[2]
  minimal inhibitory concentration (MIC): 0.5
[3]
  minimal inhibitory concentration (MIC): 4
[4]
  minimal inhibitory concentration (MIC): 4
[5]
  minimal inhibitory concentration (MIC): 2
[6]
  minimal inhibitory concentration (MIC): 0.5
[7]
  minimal inhibitory concentration (MIC): 4
[8]
  minimal inhibitory concentration (MIC): 2
[9]
  minimal inhibitory concentration (MIC): 2
[10]
  minimal inhibitory concentration (MIC): 4
[11]
  minimal inhibitory concentration (MIC): 2
[12]
  minimal inhibitory concentration (MIC): 4
[13]; [28]
  ED50: > 150 mg/kg
[13]; [29]
  ED50: 6.8 mg/kg
[14]
  minimal inhibitory concentration (MIC): 3.12
[15]
  minimal inhibitory concentration (MIC): 0.39
[16]
  minimal inhibitory concentration (MIC): 3.12
[17]
  minimal inhibitory concentration (MIC): 12.5
[18]
  minimal inhibitory concentration (MIC): 1.56
[19]
  minimal inhibitory concentration (MIC): 0.78
[20]
  minimal inhibitory concentration (MIC): 1.56
[21]
  minimal inhibitory concentration (MIC): 0.39
[22]
  minimal inhibitory concentration (MIC): 1.56
[23]
  minimal inhibitory concentration (MIC): 12.5
[24]
  minimal inhibitory concentration (MIC): 3.12
[25]
  minimal inhibitory concentration (MIC): 6.25
[26]
  minimal inhibitory concentration (MIC): 12.5
[27]
  mortality at 30 mg/kg: 0%

## CCC1OC(=O)CC(O)C(C)C(OC2OC(C)C(OC(C)=O)C(N(C)C)C2OC(C)=O)C(CC=O)CC(C)C(=O)C=CC(C)=CC1COC(C)=O (centres unmarked) [Compound 7, 2',4',23-Tri-O-acetyl-OMT]
[1]
  minimal inhibitory concentration (MIC): 2
[2]
  minimal inhibitory concentration (MIC): 0.5
[3]
  minimal inhibitory concentration (MIC): 1
[4]
  minimal inhibitory concentration (MIC): 1
[5]
  minimal inhibitory concentration (MIC): 0.5
[6]
  minimal inhibitory concentration (MIC): 0.125
[7]
  minimal inhibitory concentration (MIC): 1
[8]
  minimal inhibitory concentration (MIC): 1
[9]
  minimal inhibitory concentration (MIC): 0.5
[10]
  minimal inhibitory concentration (MIC): 1
[11]
  minimal inhibitory concentration (MIC): 0.5
[12]
  minimal inhibitory concentration (MIC): 8
[13]; [28]
  ED50: 100 mg/kg
[13]; [29]
  ED50: > 15 mg/kg
[14]
  minimal inhibitory concentration (MIC): 3.12
[15]
  minimal inhibitory concentration (MIC): 0.39
[16]
  minimal inhibitory concentration (MIC): 3.12
[17]
  minimal inhibitory concentration (MIC): 6.25
[18]
  minimal inhibitory concentration (MIC): 3.12
[19]
  minimal inhibitory concentration (MIC): 0.195
[20]
  minimal inhibitory concentration (MIC): 0.78
[21]
  minimal inhibitory concentration (MIC): 0.39
[22]
  minimal inhibitory concentration (MIC): 3.12
[23]
  minimal inhibitory concentration (MIC): 6.25
[24]
  minimal inhibitory concentration (MIC): 1.56
[25]
  minimal inhibitory concentration (MIC): 1.56
[26]
  minimal inhibitory concentration (MIC): 6.25
[27]
  mortality at 30 mg/kg: 50%

## CCC1OC(=O)CC(O)C(C)C(OC2OC(C)C(O)C(N(C)C)C2OC(C)=O)C(CC=O)CC(C)C(=O)C=CC(C)=CC1COC(=O)C=Cc1ccccc1 (centres unmarked) [Compound 33]
[1]
  minimal inhibitory concentration (MIC): 4
[2]
  minimal inhibitory concentration (MIC): 0.25
[3]
  minimal inhibitory concentration (MIC): 0.5
[4]
  minimal inhibitory concentration (MIC): 0.5
[5]
  minimal inhibitory concentration (MIC): 0.5
[6]
  minimal inhibitory concentration (MIC): 0.125
[7]
  minimal inhibitory concentration (MIC): 0.5
[8]
  minimal inhibitory concentration (MIC): 1
[9]
  minimal inhibitory concentration (MIC): 0.5
[10]
  minimal inhibitory concentration (MIC): 1
[11]
  minimal inhibitory concentration (MIC): 0.5
[12]
  minimal inhibitory concentration (MIC): 4
[13]; [28]
  ED50: 146 mg/kg
[13]; [29]
  ED50: 9.7 mg/kg
[14]
  minimal inhibitory concentration (MIC): 3.12
[15]
  minimal inhibitory concentration (MIC): 0.39
[16]
  minimal inhibitory concentration (MIC): 0.78
[17]
  minimal inhibitory concentration (MIC): 12.5
[18]
  minimal inhibitory concentration (MIC): 3.12
[19]
  minimal inhibitory concentration (MIC): 0.39
[20]
  minimal inhibitory concentration (MIC): 0.39
[21]
  minimal inhibitory concentration (MIC): 0.05
[22]
  minimal inhibitory concentration (MIC): 3.12
[23]
  minimal inhibitory concentration (MIC): 12.5
[24]
  minimal inhibitory concentration (MIC): 3.12
[25]
  minimal inhibitory concentration (MIC): 3.12
[26]
  minimal inhibitory concentration (MIC): 12.5
[27]
  mortality at 30 mg/kg: 80%
